The values below come from US20100010219A1, “METHOD FOR PRODUCING PYRROLIDINE COMPOUND” (JAPAN TOBACCO INC., priority 2006, published 2010).

pIC50: −log10 of the molar value. Structures can show the parent of a compound that is named as a salt.

T1 sequence (P28845 whole entry): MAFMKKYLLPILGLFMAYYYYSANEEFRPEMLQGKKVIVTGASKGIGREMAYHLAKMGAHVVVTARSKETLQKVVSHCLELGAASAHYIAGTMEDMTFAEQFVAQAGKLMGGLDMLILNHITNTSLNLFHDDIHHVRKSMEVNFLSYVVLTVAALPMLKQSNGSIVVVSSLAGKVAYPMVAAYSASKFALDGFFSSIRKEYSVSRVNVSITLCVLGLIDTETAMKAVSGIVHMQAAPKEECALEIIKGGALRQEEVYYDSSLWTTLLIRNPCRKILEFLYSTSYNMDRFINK

The first assay addresses T1, human HSD-1 (recombinant HSD-1) (Homo sapiens, UniProt P28845).
T1 construct: made in house
Nature of the assay: HSD-1 activity inhibitory action in vitro (SPA, conversion of cortisone to cortisol).
Conditions: not given
Type of assay: biochemical.
As a reminder, the pIC50 is −log10 of the IC50, conventionally taken in molar units. On to `O=C1CCN(C(=O)N2CCC(n3ncc(C(=O)N4CC[C@@H](c5ccccc5C(F)(F)F)C4)c3C3CC3)CC2)CC1` [Example 44, 1-{5-cyclopropyl-1-[1-(4-oxopiperidine-1-carbonyl)piperidin-4-yl]-1H-pyrazole-4-carbonyl}-[(S)-3-(2-trifluoromethylphenyl)]pyrrolidine], for which the pIC50 was above 7.52.

The assay is the same for the next values; noted with them: recombinant human HSD-1 expressed using baculovirus system; 10 nM 3H cortisone, 500 μM NADPH; room temperature 90 to 120 min; read-out: hHSD1 (IC50 (nM)).
The IC50 is the point on the concentration scale where inhibition reaches its midpoint. On to `O=C(CO)N1CCC(n2ncc(C(=O)N3CC[C@@H](c4ccccc4C(F)(F)F)C3)c2C2CC2)CC1` [Example 65, 1-{5-cyclopropyl-1-[1-(2-hydroxyacetyl)piperidin-4-yl]-1H-pyrazole-4-carbonyl}-[(S)-3-(2-trifluoromethylphenyl)]pyrrolidine], for which the IC50 is below 30 nM.

As to `NC(=O)CCC(=O)N1CCC(n2ncc(C(=O)N3CC[C@@H](c4ccccc4C(F)(F)F)C3)c2C2CC2)CC1` [Example 93, 1-{1-[1-(3-carbamoylpropionyl)piperidin-4-yl]-5-cyclopropyl-1H-pyrazole-4-carbonyl}-[(S)-3-(2-trifluoromethylphenyl)]pyrrolidine], the IC50 was below 30 nM. For the compound `N#C/N=C(\N)N1CCC(n2ncc(C(=O)N3CC[C@@H](c4ccccc4C(F)(F)F)C3)c2C2CC2)CC1` [Example 112, 1-{1-[1-(N-cyanocarbamimidoyl)piperidin-4-yl]-5-cyclopropyl-1H-pyrazole-4-carbonyl}-[(S)-3-(2-trifluoromethylphenyl)]pyrrolidine], the half-inhibitory concentration (IC50) is below 30 nM. With `O=C(c1cnn(C2CCN(S(=O)(=O)C(F)(F)F)CC2)c1C1CC1)N1CC[C@@H](c2ccccc2C(F)(F)F)C1` [Example 108, 1-[5-cyclopropyl-1-(1-trifluoromethanesulfonylpiperidin-4-yl)-1H-pyrazole-4-carbonyl]-[(S)-3-(2-trifluoromethylphenyl)]pyrrolidine], the half-inhibitory concentration (IC50) is below 30 nM.

With `CC(=O)N1CCC(OC(=O)N2CCC(n3ncc(C(=O)N4CC[C@@H](c5ccccc5C(F)(F)F)C4)c3C3CC3)CC2)CC1` [Example 63, 1-{1-[1-(1-acetylpiperidin-4-yl-oxycarbonyl)piperidin-4-yl]-5-cyclopropyl-1H-pyrazole-4-carbonyl}-[(S)-3-(2-trifluoromethylphenyl)]pyrrolidine], the concentration for half-maximal inhibition (IC50) was below 30 nM. As for `O=C(c1cnn(C2CCN(C3CC3)CC2)c1C1CC1)N1CC[C@@H](c2ccccc2C(F)(F)F)C1` [Example 99, 1-[5-cyclopropyl-1-(1-cyclopropylpiperidin-4-yl)-1H-pyrazole-4-carbonyl]-[(S)-3-(2-trifluoromethylphenyl)]pyrrolidine hydrochloride], the IC50 was below 30 nM.

Turning to `CC(C)[C@H](N)C(=O)N1CCC(n2ncc(C(=O)N3CC[C@@H](c4ccccc4C(F)(F)F)C3)c2C2CC2)CC1` [Example 84, 1-(1-{1-[(S)-2-amino-3-methylbutyryl]piperidin-4-yl}-5-cyclopropyl-1H-pyrazole-4-carbonyl)-[(S)-3-(2-trifluoromethylphenyl)]pyrrolidine hydrochloride], the IC50 was below 30 nM. Same read-out and setting: for `O=C(Nc1ccccc1CO)N1CCC(n2ncc(C(=O)N3CC[C@@H](c4ccccc4C(F)(F)F)C3)c2C2CC2)CC1` [Example 6, 1-{5-cyclopropyl-1-[1-(2-hydroxymethylphenylcarbamoyl)piperidin-4-yl]-1H-pyrazole-4-carbonyl}-[(S)-3-(2-trifluoromethylphenyl)]pyrrolidine] the value was below 30 nM; for `O=C(Nc1nccs1)N1CCC(n2ncc(C(=O)N3CCC(c4ccccc4C(F)(F)F)C3)c2C2CC2)CC1` (centres unmarked) [Example 145, 1-{5-cyclopropyl-1-[1-(thiazol-2-ylcarbamoyl)piperidin-4-yl]-1H-pyrazole-4-carbonyl}-3-(2-trifluoromethylphenyl)pyrrolidine], below 30 nM. On the same count and under the same terms, for `CC(C(N)=O)N1CCC(n2ncc(C(=O)N3CC[C@@H](c4ccccc4C(F)(F)F)C3)c2C2CC2)CC1` (stereo partly drawn) [Example 103, 1-{1-[1-(1-carbamoylethyl)piperidin-4-yl]-5-cyclopropyl-1H-pyrazole-4-carbonyl}-[(S)-3-(2-trifluoromethylphenyl)]pyrrolidine hydrochloride] the value was below 30 nM.
